Test results reported in publication PMC6225228, “Design, Synthesis and Evaluation of N-pyrazinylbenzamides as Potential Antimycobacterial Agents” (Molecules : A Journal of Synthetic Chemistry and Natural …, 2018).
Where two headings read alike, the source gives them in different places.

What was measured:
[1] = system: M. kansasii CNCTC My 235/80 (ATCC 12478); assay: Antimycobacterial microdilution MABA, M. kansasii; assay type: cell-based, Mycobacterium kansasii; conditions: Mycobacterium kansasii, ATCC12478, pH 6.6, read-out: M. kans. ATCC 12478 MIC, Middlebrook 7H9 with OADC, pH 6.6, MABA
Candida glabrata 20/I = assay: Antifungal microdilution broth, CG; assay type: cell-based; conditions: Nakaseomyces glabratus, 20/I, read-out: MIC CG
[2] = system: Mycobacterium tuberculosis H37Rv CNCTC My 331/88 (ATCC 27294); assay: Antimycobacterial microdilution MABA, M. tuberculosis; assay type: cell-based; conditions: for Mtb H37Rv ATCC 27294 MIC: Middlebrook 7H9 with OADC growth supplement, pH = 6.6, MABA; for MIC: Mycobacterium tuberculosis, read-out: Mtb H37Rv ATCC 27294 MIC, Middlebrook 7H9 with OADC growth supplement, pH = 6.6, MABA
[3] = system: Escherichia coli CCM 4517; assay: Antibacterial microdilution broth, EC; assay type: cell-based; conditions: Escherichia coli, read-out: MIC EC
Candida tropicalis 156 = assay: Antifungal microdilution broth, CT; assay type: cell-based; conditions: read-out: MIC CT
[4] = system: M. avium ssp. avium CNCTC My 80/72 (ATCC 15769); assay: Antimycobacterial microdilution MABA, M. avium; assay type: cell-based, Mycobacterium avium; conditions: Mycobacterium avium, ATCC15769, pH 6.6, read-out: M. avium ATCC 15769 MIC
[5] = system: Pseudomonas aeruginosa CCM 1961; assay: Antibacterial microdilution broth, PA; assay type: cell-based; conditions: Pseudomonas aeruginosa, read-out: MIC PA
[6] = system: Mycobacterium smegmatis CCM 4622 (ATCC 607); assay: Antimycobacterial microdilution, M. smegmatis; assay type: cell-based; conditions: Mycolicibacterium smegmatis, read-out: M. smeg. ATCC 607 MIC
Candida krusei E28 = assay: Antifungal microdilution broth, CK; assay type: cell-based; conditions: Pichia kudriavzevii, read-out: MIC CK
[7] = system: Staphylococcus aureus CCM 4516/08; assay: Antibacterial microdilution broth, SA; assay type: cell-based; conditions: Staphylococcus aureus
[8] = system: Staphylococcus aureus H 5996/08 methicillin resistant; assay: microbe, parasite or virus in culture; assay type: cell-based; conditions: Staphylococcus aureus, MRSA, read-out: MIC MRSA
[9] = system: Lichtheimia corymbifera 272; assay: Antifungal microdilution broth, LC; assay type: cell-based; conditions: read-out: MIC LC
[10] = system: Staphylococcus epidermidis H 6966/08; assay: Antibacterial microdilution broth, SE; assay type: cell-based; conditions: Staphylococcus epidermidis, read-out: MIC SE
[11] = system: Candida albicans ATCC 44859; assay: Antifungal microdilution broth, CA; assay type: cell-based; conditions: Candida albicans, read-out: MIC CA
[12] = system: Trichophyton interdigitale 445; assay: Antifungal microdilution broth, TI; assay type: cell-based; conditions: read-out: MIC TI
Trichosporon asahii 1188 = assay: Antifungal microdilution broth, TA; assay type: cell-based; conditions: read-out: MIC TA
[13] = system: Aspergillus fumigatus 231; assay: Antifungal microdilution broth, AF; assay type: cell-based; conditions: read-out: MIC AF
[14] = system: Enterococcus sp. J 14365/08; assay: Antibacterial microdilution broth, EF; assay type: cell-based; conditions: Enterococcus, read-out: MIC EF
[15] = CCM4516, 24 h, read-out: MIC SA, 24 h
[16] = CCM4516, 48 h, read-out: MIC SA, 48 h
[17] = CCM4516, read-out: MIC against S. aureus, time not stated
[18] = Lichtheimia corymbifera, 272, 24 h
[19] = Lichtheimia corymbifera, 272, 48 h
[20] = Trichophyton interdigitale, 445, 72 h
[21] = Trichophyton interdigitale, 445, 120 h
[22] = Trichosporon asahii, 1188, 24 h
[23] = Trichosporon asahii, 1188, 48 h
[24] = Aspergillus fumigatus, 231, 24 h
[25] = Aspergillus fumigatus, 231, 48 h

Structure (SMILES) | MIC [1] [µg/mL] | MIC (Candida glabrata 20/I; 24 h) [µM] | MIC (Candida glabrata 20/I; 48 h) [µM] | MIC [2] [µg/mL] | MIC ([3]; CCM4517, 24 h) [µM] | MIC ([3]; CCM4517, 48 h) [µM] | MIC (Candida tropicalis 156; Candida tropicalis, 156, 24 h) [µM] | MIC (Candida tropicalis 156; Candida tropicalis, 156, 48 h) [µM] | MIC [4] [µg/mL] | MIC ([5]; CCM1961, 72 h) [µM] | MIC ([5]; CCM1961, 120 h) [µM] | MIC [6] [µg/mL] | MIC (Candida krusei E28; E28, 24 h) [µM] | MIC (Candida krusei E28; E28, 48 h) [µM] | MIC [7, 15] [µM] | MIC [7, 16] [µM] | MIC ([8]; 24 h) [µM] | MIC ([8]; 48 h) [µM] | MIC [9, 18] [µM] | MIC [9, 19] [µM] | further results
O=C(Nc1cnc(Cl)cn1)c1cccc(Cl)c1 [Compound 2k] | > 100 | > 125 | > 125 | > 100 | > 125 | > 125 | > 125 | > 125 | > 100 | > 125 | > 125 | ≥ 500 | > 125 | > 125 | > 125 | > 125 | > 125 | > 125 | > 125 | > 125 | Mtb H37Rv ATCC 27294 MIC [2]: >100 µg/mL; MIC [7, 17]: > 125 µM; MIC ([10]; H6966/08, 24 h): > 125 µM; MIC ([10]; H6966/08, 48 h): > 125 µM; MIC ([11]; ATCC44859, 24 h): > 125 µM; MIC ([11]; ATCC44859, 48 h): > 125 µM; MIC [12, 20]: > 125 µM; MIC [12, 21]: > 125 µM; MIC (Trichosporon asahii 1188; [22]): > 125 µM; MIC (Trichosporon asahii 1188; [23]): > 125 µM; melting point: 150.7 to 151.9 °C; MIC [13, 24]: > 125 µM; MIC [13, 25]: > 125 µM; MIC ([14]; SP.J14365/08, 24 h): > 125 µM; MIC ([14]; SP.J14365/08, 48 h): > 125 µM
O=C(Nc1cnc(Cl)cn1)c1ccc(Cl)cc1 [Compound 2l] | > 100 | > 125 | > 125 | > 100 | > 125 | > 125 | > 125 | > 125 | > 100 | > 125 | > 125 | ≥ 500 | > 125 | > 125 | > 125 | > 125 | > 125 | > 125 | > 125 | > 125 | MIC [7, 17]: > 125 µM; MIC ([10]; H6966/08, 24 h): > 125 µM; MIC ([10]; H6966/08, 48 h): > 125 µM; MIC ([11]; ATCC44859, 24 h): > 125 µM; MIC ([11]; ATCC44859, 48 h): > 125 µM; MIC [12, 20]: > 125 µM; MIC [12, 21]: > 125 µM; MIC (Trichosporon asahii 1188; [22]): > 125 µM; MIC (Trichosporon asahii 1188; [23]): > 125 µM; melting point: 225 to 226.3 °C; MIC [13, 24]: > 125 µM; MIC [13, 25]: > 125 µM; MIC ([14]; SP.J14365/08, 24 h): > 125 µM; MIC ([14]; SP.J14365/08, 48 h): > 125 µM
O=C(Nc1cnc(Cl)cn1)c1ccc(Br)cc1 [Compound 2m] | > 100 | > 125 | > 125 | > 100 | > 125 | > 125 | > 125 | > 125 | > 100 | > 125 | > 125 | ≥ 500 | > 125 | > 125 | > 125 | > 125 | > 125 | > 125 | > 125 | > 125 | Mtb H37Rv ATCC 27294 MIC [2]: >100 µg/mL; MIC ([10]; H6966/08, 24 h): > 125 µM; MIC ([10]; H6966/08, 48 h): > 125 µM; MIC ([11]; ATCC44859, 24 h): > 125 µM; MIC ([11]; ATCC44859, 48 h): > 125 µM; MIC [12, 20]: > 125 µM; MIC [12, 21]: > 125 µM; MIC (Trichosporon asahii 1188; [22]): > 125 µM; MIC (Trichosporon asahii 1188; [23]): > 125 µM; melting point: 229.2 to 230.5 °C; MIC [13, 24]: > 125 µM; MIC [13, 25]: > 125 µM; MIC ([14]; SP.J14365/08, 24 h): > 125 µM; MIC ([14]; SP.J14365/08, 48 h): > 125 µM
COc1ccccc1C(=O)Nc1cncc(Cl)n1 [Compound 3e] | > 100 | > 500 | > 500 | > 100 | > 500 | > 500 | > 500 | > 500 | > 100 | > 500 | > 500 | ≥ 500 | > 500 | > 500 | > 500 | > 500 | > 500 | > 500 | > 500 | > 500 | Mtb H37Rv ATCC 27294 MIC [2]: >100 µg/mL; MIC ([10]; H6966/08, 24 h): > 500 µM; MIC ([10]; H6966/08, 48 h): > 500 µM; MIC ([11]; ATCC44859, 24 h): > 500 µM; MIC ([11]; ATCC44859, 48 h): > 500 µM; MIC [12, 20]: > 500 µM; MIC [12, 21]: > 500 µM; MIC (Trichosporon asahii 1188; [22]): > 500 µM; MIC (Trichosporon asahii 1188; [23]): > 500 µM; melting point: 149.1 to 150.7 °C; MIC [13, 24]: > 500 µM; MIC [13, 25]: > 500 µM; MIC ([14]; SP.J14365/08, 24 h): > 500 µM; MIC ([14]; SP.J14365/08, 48 h): > 500 µM
